In patent publication US11560352B2, “P62-ZZ small molecule modulators” (University of Pittsburgh—Of the Commonwealth System of …, priority 2015, dated 2023):
Counter-ions that a name gives are not always drawn.

Assays:
RPMI8266 = assay: inhibition of multiple myeloma cell growth, RPMI8266 cells; assay type: cell-based; conditions: Homo sapiens
Source text: (§1) FIG. 2 is a schematic showing in vitro biological assays to validate screened compounds for multiple myeloma cells growth via inhibition of p62-zz domain and PKCζ phosphorylation.

MM1S = assay: inhibition of multiple myeloma cell growth, MM1S cells; assay type: cell-based; conditions: Homo sapiens, MM1.S
Source text: as §1

[1] = tested on: RPMI-8226 human multiple myeloma xenograft; assay: subcutaneous RPMI-8226 human multiple myeloma xenograft model: efficacy and tolerability; assay type: in vivo
Method: The therapeutic efficacy and tolerability of compound XIELP1-106 (also referred to as 10b) was evaluated in the treatment of subcutaneous RPMI-8226 human multiple myeloma xenograft model. The tumor volumes in the two groups at different time points are shown FIG. 3. The mean tumor volume of the XIELP1-106 vehicle control group reached 1,452 mm3 on day 39 after tumor implantation. The treatment of XIELP1-106 (60 mg/kg, ip, q3d×4 wks) produced a strong antitumor activity with T/C value of 23% (p=0.001).
The median survival time (MST) of the vehicle treated mice was 42 days (FIG. 4).

U266 = assay: inhibition of multiple myeloma cell growth, U266 cells; assay type: cell-based; conditions: Homo sapiens, U-266
Source text: as §1

IC50 (RPMI8266) | IC50 (MM1S) | IC50 (U266) | Compound | T/C value (antitumor activity) ([1]; 60 mg/kg, ip, q3d×4 wks, tumor volume vs vehicle control, day 39 after tumor implantation, p=0.001) | body weight loss ([1]; mice, 60 mg/kg ip q3d, after 3 doses, tolerability developed afterwards) | other gross clinical abnormality ([1]; mice, 60 mg/kg ip q3d×4 wks)
1.33 µM | 2.51 µM | – | Fc1ccc(COc2cc(CNC3CCCCC3)cc(OCc3ccc(F)cc3F)c2)c(F)c1 [XIELP1-60, N-(3,5-bis((2,4-difluorobenzyl)oxy)benzyl)cyclohexanamine] | – | – | –
0.92 µM | 1.51 µM | 1.26 µM | Cc1ccc(COc2ccc(CNCC3CCCCC3)cc2OCc2ccc(C)cc2)cc1 [XIELP1-25b] | – | – | –
1.83 µM | 5.36 µM | – | Cc1ccc(COc2ccc(CNC3CCCCC3)cc2OCc2ccc(C)cc2)cc1 [XIELP1-51, N-(3,4-bis((4-methylbenzyl)oxy)benzyl)cyclohexanamine] | – | – | –
0.63 µM | 2.56 µM | 1.21 µM | Cc1ccc(COc2ccc(CNCCO)cc2OCc2ccc(C)cc2)cc1 [XIELP1-24b, 2-((3,4-bis((4-methylbenzyl)oxy)benzyl)amino)ethan-1-ol] | – | – | –
1.4 µM | 2.5 µM | – | Fc1ccc(COc2cc(CNCC3CCCCC3)cc(OCc3ccc(F)cc3F)c2)c(F)c1 [XIELP1-58, N-(3,5-bis((2,4-difluorobenzyl)oxy)benzyl)-1-cyclohexylmethanamine] | – | – | –

Second part, the compound before the results:

Compound | IC50 (RPMI8266) | IC50 (MM1S) | IC50 (U266) | T/C value (antitumor activity) ([1]; 60 mg/kg, ip, q3d×4 wks, tumor volume vs vehicle control, day 39 after tumor implantation, p=0.001) | body weight loss ([1]; mice, 60 mg/kg ip q3d, after 3 doses, tolerability developed afterwards) | other gross clinical abnormality ([1]; mice, 60 mg/kg ip q3d×4 wks)
Fc1ccc(COc2ccc(CNCC3CCCCC3)cc2OCc2ccc(F)cc2F)c(F)c1 [XIELP1-17b, N-(3,4-bis((2,4-difluorobenzyl)oxy)benzyl)-1-cyclohexylmethanamine] | 0.94 µM | 0.84 µM | – | – | – | –
Fc1ccc(COc2ccc(CNCC3CCCCC3)cc2OCc2ccc(F)cc2)cc1 [XIELP1-106, N-(3,4-bis((4-fluorobenzyl)oxy)benzyl)-1-cyclohexylmethanamine Hydrochloride] | 0.72 µM | 2.46 µM | – | 23% | 11.2% | No other gross clinical abnormality was observed
Fc1ccc(COc2ccc(CNC3CCCCC3)cc2OCc2ccc(F)cc2)cc1 [XIELP1-12b, N-(3,4-bis((4-fluorobenzyl)oxy)benzyl)cyclohexanamine] | 1.18 µM | 1.77 µM | – | – | – | –
Fc1ccc(COc2ccc(CNC3CCCCC3)cc2OCc2ccc(F)cc2F)c(F)c1 [XIELP1-20a, N-(3,4-bis((2,4-difluorobenzyl)oxy)benzyl)cyclohexanamine] | 1.13 µM | 2.53 µM | – | – | – | –
